Test: Inhibition of dog kidney Sodium/potassium-transporting ATPase by ELISA
Design: species or system Canis lupus familiaris

With C[C@]12C[C@@H](O)[C@H]3[C@@H](CC[C@]4(O)C[C@@H](OC(=O)CCCCCCCCCCCO)CC[C@]34CO)[C@@]1(O)CC[C@@H]2c1ccc(=O)oc1 as the compound, how does the IC50 read?
The IC50 was 120 nM.

Which IC50 does the source give for C[C@]12C[C@@H](O)[C@H]3[C@@H](CC[C@]4(O)C[C@@H](OC(=O)CCCCCCCCCCCCCO)CC[C@]34CO)[C@@]1(O)CC[C@@H]2c1ccc(=O)oc1 here?
Its IC50 is 100 nM.

With C[C@]12C[C@@H](O)[C@H]3[C@@H](CC[C@]4(O)C[C@@H](OC(=O)CCCCC/C=C\CCCCCCO)CC[C@]34CO)[C@@]1(O)CC[C@@H]2c1ccc(=O)oc1 as the compound, how does the IC50 read?
Its IC50 is 100 nM.

For C[C@]12C[C@@H](O)[C@H]3[C@@H](CC[C@]4(O)C[C@@H](O)CC[C@]34CO)[C@@]1(O)CC[C@@H]2c1ccc(=O)oc1, which IC50 is on record?
The IC50 was 120 nM.
